Here are results for twelve compounds from patent US4396623A, “Carbocyclic analogs of uracil nucleosides as antiviral agents” (priority 1981, dated 1983).

Structures are written as SMILES. Values after ≈ are worked out from the molar mass of the structure shown. “Also recorded” adds a separate entry of the source. Like-named read-outs stand apart in the source and are kept apart here. Where only a bound is given, the exact number is not on record here.

In assay [1] the test system is herpes simplex virus. Briefly: Activity against intracerebral herpes simplex virus in mice (herpes encephalitis). It counts as in vivo. Particulars: for % of Infected Mice that lived 10 days or longer / % of Infected Mice that lived less than six days / Median Survival Time: treated seven days, 10x LD50 intracerebral; for Activity against herpes encephalitis in mice, in words: intracerebral herpes simplex virus. On the procedure: Mice were inoculated intracerebrally with ten times the LD50 of herpes simplex virus. (The LD50 is the amount of virus that would be lethal to 50% of the inoculated animals.) Some of these virus-infected mice were treated for seven days with the carbocyclic analog (Example 3) of IdUrd, and some of these virus-infected mice were not treated and served as a control group.

Assay [2] deals with Type 2 herpes simplex virus. Briefly: Antiviral test against Type 2 herpes simplex virus (Virus Rating). Type of assay: cell-based. Particulars: for VR: Type 2 herpes simplex virus. The procedure:
(§1) Carbocyclic analogs of 5-substituted-2'-deoxyuridines were tested for antiviral activity against viruses that replicate in mammalian cells growing in cell culture. The Virus Rating (VR) is a weighted measurement of antiviral activity determined by the method of Ehrlich et al, Annals of the New York Academy of Science, volume 130, pages 5-16, 1965. In tests carried out by this method, a VR of 0.5-0.9 indicates marginal to moderate antiviral activity and a VR equal to or greater than 1 indicates definite antiviral activity. The higher the value of VR, the greater is the antiviral activity. The MIC50 (minimum inhibitory concentration, 50%) is the concentration of a test compound required for 50% inhibition of virus-induced cytopathogenic effect.

The next assay relates to varicella-zoster virus. The experiment in a line: Inhibition of varicella-zoster virus replication in human foreskin fibroblasts (virus yield-reduction). Type of assay: cell-based. An excerpt:
(§2) Carbocyclic analogs of 5-substituted-2'-deoxyuridines may inhibit the replication of other DNA viruses. Thus, the carbocyclic analog (Example 3) of 5-iodo-2'-deoxyuridine is active against varicella-zoster virus replicating in human foreskin fibroblasts (Table 2). […] The IdUrd analog (Example 3) was also active against murine leukemia virus, an RNA tumor virus.
Virus titers are expressed in terms of log10 CCID50 (cell
culture infectious dose, 50%) units per ml., and the reduction in virus
yield after drug treatment is expressed as a logarithm.

Another assay deals with murine leukemia virus. The experiment in a line: Inhibition of murine leukemia virus replication in mouse embryo cells. It counts as cell-based.
Description: as §2

Assay [3] concerns herpes simplex virus, Type 1. Briefly: Antiviral test against herpes simplex virus, Type 1, growing in rabbit kidney cells (Virus Rating, MIC50). Type of assay: cell-based. Particulars: for Antiviral activity against herpes simplex virus, in words: same type of test as Table 1; for VR: same type of test against herpes simplex virus (Table 1). Also noted: key to Virus Rating (VR) / VR: Ehrlich weighted score; 0.5-0.9 marginal-moderate, ≥1 definite activity. The procedure:
as §1
The results of antiviral tests, performed as described in Example 7, of 5-iodo-2'-deoxyuridine (IdUrd), the carbocyclic analog (Example 3) of 5-iodo-2'-deoxyuridine, 9-β-D-arabinofuranosyladenine (Ara-A), the carbocyclic analog (Example 2) of 5-bromo-2'-deoxyuridine, the carbocyclic analog (Example 5) of 5-(methylamino)-2'-deoxyuridine and the carbocyclic analog of thymidine are summarized in Table 3.

For assay [4], the system named is herpes simplex virus. The settings on record: F. M. Schabel, Jr., Chemotherapy 13, 321-328, 1968; listed as IdUrd; cited from earlier work.
Where [5] appears, read: Table 1, rabbit kidney cells, VR 0.5-0.9 marginal to moderate, >=1 definite antiviral activity.
Where [6] appears, read: Human alphaherpesvirus 1, Table 1, 50% inhibition of virus-induced cytopathogenic effect, rabbit kidney cells, read-out: MIC50 (minimum inhibitory concentration, 50%).
The mark [7] stands for this setting: Human alphaherpesvirus 1, Table 3 comparison, read-out: MIC50.

For the compound `O=c1[nH]c(=O)n([C@@H]2C[C@H](CO)[C@@H](O)C2)cc1I` (relative stereo) [Example 3, (±)-1-[(1α,3β,4α)-3-Hydroxy-4-(hydroxymethyl)cyclopentyl]-5-iodo-2,4(1H,3H)-pyrimidinedione], the “% of Infected Mice that lived 10 days or longer” value in the assay on herpes simplex virus [1] (300 mg./kg.) worked out at 40%; in the assay with herpes simplex virus [1] (400 mg./kg.), 50%. Further, the entries for the “% of Infected Mice that lived less than six days” value in the assay on herpes simplex virus [1] (300 mg./kg.) and in the assay on herpes simplex virus [1] (400 mg./kg.) were 10% and 0%, respectively. The “Median Survival Time” value was 9.2 days in the assay with herpes simplex virus [1] (300 mg./kg.) and 8.8 days in the assay on herpes simplex virus [1] (400 mg./kg.). Moreover, the “Activity against herpes encephalitis in mice, in words” value with herpes simplex virus [1] is given as “active against herpes encephalitis”; in the assay with herpes simplex virus [1] (listed as carbocyclic analog of 5-iodo-2'-deoxyuridine), “active”. For the same compound, the “Activity against Type 2 herpes simplex virus, in words” value in assay [2] is listed as “high activity”. The compound further gave a VR in assay [2] of 3.4. The “Virus Yield Log10 CCID50 /ml” value with varicella-zoster virus (32 μM), with varicella-zoster virus (100 μM) and in the assay with varicella-zoster virus (320 μM) was not above 0.5 Log10 CCID50 /ml in each case. For the same compound, the “Virus-Induced Cytopathogenic Effects at 10 Days Postinfection, %” value amounted to 0% in the assay on varicella-zoster virus (32 μM, human foreskin fibroblasts); 0% in the assay with varicella-zoster virus (100 μM, human foreskin fibroblasts); 0% with varicella-zoster virus (320 μM, human foreskin fibroblasts). Besides, in the assay with varicella-zoster virus (10 days postinfection), the “observable virus-induced cytopathogenic effects at 10 days postinfection, in words” value is on record as “no observable virus-induced cytopathogenic effects”. The log reduction at 32 µM in the assay on varicella-zoster virus (Human alphaherpesvirus 3, Fibroblast, 32 μM, read-out: Log10 Reduction in Virus Titer) is not below 4. In addition, the log reduction at 100 µM with varicella-zoster virus (Human alphaherpesvirus 3, Fibroblast, 100 μM, read-out: Log10 Reduction in Virus Titer) is not below 4. Also, in the assay on varicella-zoster virus (Human alphaherpesvirus 3, Fibroblast, 320 μM, read-out: Log10 Reduction in Virus Titer), the log reduction at 320 µM is not below 4. In addition, in the assay on varicella-zoster virus (human foreskin fibroblasts), the “Activity against varicella-zoster virus, in words” value is given as “active”. Also, the “reduction in the titer of virus progeny” value in the assay with varicella-zoster virus (virus yield-reduction experiment) is listed as not below 4.0 log10. Also, in the assay with murine leukemia virus, the “Activity against murine leukemia virus, in words” value is listed as “active”. The “Replication of murine leukemia virus in mouse embryo cells” value in the assay with murine leukemia virus (drug concentration of 32 μg/ml) is “completely inhibited”. In assay [3] (Human alphaherpesvirus 1, read-out: MIC50 (minimum inhibitory concentration, 50%), Table 1, 50% inhibition of virus-induced cytopathogenic effect, rabbit kidney cells), the EC50 was determined as 0.3 µg/mL (≈ 0.852 µM). Also, the “Virus Rating (VR)” value in assay [3] (setting [5]) turned out to be 7.1. Moreover, in assay [3] (Table 3 tests), the “Activity compared with IdUrd, in words” value was “comparable in activity”. Also, in assay [3], the “Antiviral activity against herpes simplex virus, in words” value (“Antiviral activity” for short) was “very high activity; also recorded: high activity”.
`CCCCNc1cn([C@@H]2C[C@H](CO)[C@@H](O)C2)c(=O)[nH]c1=O` (relative stereo) [Example 6, (±)-5-(Butylamino)-1-[(1α,3β,4α)-3-hydroxy-4-(hydroxymethyl)cyclopentyl]-2,4(1H,3H)-pyrimidinedione]: the EC50 in assay [3] (setting [6]) turned out to be 290 µg/mL (≈ 975 µM). Besides, the “Virus Rating (VR)” value in assay [3] (setting [5]) amounted to 2.0. The “Antiviral activity” value in assay [3] is on record as “active”.
For the compound `O=c1[nH]c(=O)n([C@H]2C[C@H](O)[C@@H](CO)O2)cc1I` [5-Iodo-2'-deoxyuridine, 5-iodo-2'-deoxyuridine], the “Activity against herpes encephalitis in mice, in words” value in the assay on herpes simplex virus [4] was “not active; also recorded: does not exhibit this type of antiviral activity”. For the same compound, the EC50 in assay [3] (setting [7]) was determined as 0.3 µg/mL (≈ 0.847 µM).
In the case of `Nc1cn([C@@H]2C[C@H](CO)[C@@H](O)C2)c(=O)[nH]c1=O` (relative stereo) [reference compound], in assay [3], the VR was 0.1 and the “Antiviral activity” value was “devoid of significant activity”.
Consider `CNc1cn([C@@H]2C[C@H](CO)[C@@H](O)C2)c(=O)[nH]c1=O` (relative stereo) [Example 5, (±)-1-[(1α,3β,4α)-3-Hydroxy-4-(hydroxymethyl)cyclopentyl]-5-(methylamino)-2,4(1H,3H)-pyrimidinedione], for which the “Activity against Type 2 herpes simplex virus, in words” value in assay [2] was “high activity”. This compound displayed a VR in assay [2] of 1.2. Also, the figures for the EC50 in assay [3] (setting [6]) and in assay [3] (setting [7]) were 15 µg/mL (≈ 58.8 µM) and 10 µg/mL (≈ 39.2 µM), respectively. For the same compound, the “Virus Rating (VR)” value in assay [3] (setting [5]) was 3.9; in assay [3] (Table 3 comparison) it was 4.2. Moreover, in assay [3], the “Antiviral activity” value is on record as “very high activity; also recorded: active”.
Turning to `Cc1cn([C@@H]2C[C@H](CO)[C@@H](O)C2)c(=O)[nH]c1=O` (relative stereo) [Carbocyclic analog of thymidine], the “Activity against Type 2 herpes simplex virus, in words” value in assay [2] is “high activity”. For the same compound, the VR in assay [2] is given as 3.2. The EC50 in assay [3] (setting [7]) worked out at 0.8 µg/mL (≈ 3.33 µM). Also, the “Virus Rating (VR)” value in assay [3] (setting [5]) and in assay [3] (Table 3 comparison) was 5.4 each time. The “Antiviral activity” value in assay [3] is “very high activity”.
Regarding `O=c1[nH]c(=O)n([C@@H]2C[C@H](CO)[C@@H](O)C2)cc1F` (relative stereo) [Formula I, X = F, R = R^1 = H, reference compound], the “Virus Rating (VR)” value in assay [3] (setting [5]) stood at 0. In assay [3], the VR is reported as 0 and the “Antiviral activity” value is “not active”.
In the case of `O=c1ccn([C@@H]2C[C@H](CO)[C@@H](O)C2)c(=O)[nH]1` (relative stereo) [Formula I, X = H, R = R^1 = H, (±)-1-[(1α,3β,4α)-3-hydroxy-4-(hydroxymethyl)cyclopentyl]-2,4(1H,3H)-pyrimidinedione, reference compound], the “Virus Rating (VR)” value in assay [3] (setting [5]) is 0. For the same compound, the “Antiviral activity” value in assay [3] is “not active”.
With `O=c1[nH]c(=O)n([C@@H]2C[C@H](CO)[C@@H](O)C2)cc1Br` (relative stereo) [Example 2, (±)-5-Bromo-1-[(1α,3β,4α)-3-hydroxy-4-(hydroxymethyl)cyclopentyl]-2,4(1H,3H)-pyrimidinedione], the “Activity against Type 2 herpes simplex virus, in words” value in assay [2] is recorded as “high activity”. This compound also displayed a VR in assay [2] of 1.5. Moreover, in assay [3] (setting [7]), the EC50 is 0.3 µg/mL (≈ 0.983 µM). Also, the “Virus Rating (VR)” value in assay [3] (setting [5]) and in assay [3] (Table 3 comparison) was 6.2 each time. In addition, the “Antiviral activity” value in assay [3] is given as “very high activity; also recorded: high activity”.
With `CC(=O)OC[C@H]1C[C@@H](n2cc(Br)c(=O)[nH]c2=O)C[C@@H]1OC(C)=O` (relative stereo) [Example 1, (±)-5-Bromo-1-[(1α,3β,4α)-3-hydroxy-4-(hydroxymethyl)cyclopentyl]-2,4(1H,3H)-pyrimidinedione Diacetate], the EC50 in assay [3] (setting [6]) turned out to be 92 µg/mL. In assay [3] (setting [5]), the “Virus Rating (VR)” value is given as 1.3.
On the same counts, the results for `CC(=O)OC[C@H]1C[C@@H](n2cc(I)c(=O)[nH]c2=O)C[C@@H]1OC(C)=O` (relative stereo) [Example 4, (±)-1-[(1α,3β,4α)-3-Hydroxy-4-(hydroxymethyl)cyclopentyl]-5-iodo-2,4(1H,3H)-pyrimidinedione Diacetate] are 10 µg/mL and 2.4.
In the case of `Nc1ncnc2c1ncn2[C@@H]1O[C@H](CO)[C@@H](O)[C@@H]1O` [9-β-D-Arabinofuranosyladenine (Ara-A), 9-β-D-arabinofuranosyladenine, reference compound], the EC50 in assay [3] (Human alphaherpesvirus 1, read-out: MIC50, Table 3 comparison) is 9.8 µg/mL (≈ 36.7 µM). Further, the “Virus Rating (VR) (average)” value in assay [3] (Table 3 comparison, average) is 2.7.
